# Assay results published in ChEMBL document CHEMBL1159183, “Non-peptide itam mimics as ZAP-70 antagonists” (Bioorg Med Chem Lett, 1997).
# Columns and labels:
# Jurkat = test: Cellular activity was measured by an IL-2 luciferase reporter gene assay on a Jurkat human T cell line activated by anti-CD28 and anti-TCR antibodies; format: functional, cell-based
# [1] = molecular target: T1, Tyrosine-protein kinase ZAP-70 (Homo sapiens, UniProt P43403); test: Antagonistic activity against SH2 domain of Zeta-chain (TCR) associated protein kinase, ZAP-70; format: functional
# T1 sequence (P43403 whole entry): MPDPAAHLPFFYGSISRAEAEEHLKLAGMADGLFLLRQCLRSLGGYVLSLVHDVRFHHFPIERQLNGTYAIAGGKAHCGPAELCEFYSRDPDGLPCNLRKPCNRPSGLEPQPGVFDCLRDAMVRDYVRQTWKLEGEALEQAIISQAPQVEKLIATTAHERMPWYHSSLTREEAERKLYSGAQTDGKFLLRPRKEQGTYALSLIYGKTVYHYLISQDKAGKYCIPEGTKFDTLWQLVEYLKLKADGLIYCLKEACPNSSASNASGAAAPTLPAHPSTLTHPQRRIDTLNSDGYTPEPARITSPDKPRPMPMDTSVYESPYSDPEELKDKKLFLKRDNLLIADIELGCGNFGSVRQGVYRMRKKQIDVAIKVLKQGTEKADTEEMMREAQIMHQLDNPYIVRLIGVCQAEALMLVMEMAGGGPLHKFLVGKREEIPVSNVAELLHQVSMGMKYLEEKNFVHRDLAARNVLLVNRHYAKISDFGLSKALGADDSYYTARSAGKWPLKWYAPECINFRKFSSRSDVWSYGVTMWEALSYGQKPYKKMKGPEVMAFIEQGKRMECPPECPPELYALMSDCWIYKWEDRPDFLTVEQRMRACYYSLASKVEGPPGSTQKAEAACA
SMILES,IC50 (Jurkat),IC50 [1]
CCCCCC(=O)N(Cc1ccc(CP(=O)(O)O)cc1)[C@H]1CC[C@H]2[C@@H]3CCc4cc(OCCC)ccc4[C@H]3CC[C@]12C,3600 nM,3200 nM
CCCCCC(=O)N(Cc1ccc(CP(=O)(O)O)cc1)[C@H]1CC[C@H]2[C@@H]3CCc4cc(OCCCOc5ccc6c(c5)CC[C@@H]5[C@@H]6CC[C@]6(C)[C@@H](N(Cc7ccc(CP(=O)(O)O)cc7)C(=O)CCCCC)CC[C@@H]56)ccc4[C@H]3CC[C@]12C,26500 nM,320 nM
CCCCCC(=O)N(Cc1ccc(C(F)(F)P(=O)(O)O)cc1)[C@H]1CC[C@H]2[C@@H]3CCc4cc(OCCCOc5ccc6c(c5)CC[C@@H]5[C@@H]6CC[C@]6(C)[C@@H](N(Cc7ccc(C(F)(F)P(=O)(O)O)cc7)C(=O)CCCCC)CC[C@@H]56)ccc4[C@H]3CC[C@]12C,1900 nM,250 nM
CCCCCC(=O)N(Cc1ccc(C(F)(F)P(=O)(O)O)cc1)[C@H]1CC[C@H]2[C@@H]3CCc4cc(OCCC)ccc4[C@H]3CC[C@]12C,900 nM,1900 nM
